According to patent US11000033B2, “Ketone or oxime compound, and herbicide” (NISSAN CHEMICAL CORPORATION, priority 2014, dated 2021):

Legend:
Assay type in all cases: in vivo
[1] = system: Echinochloa oryzacola Vasing.; assay: Test Example 1: herbicidal activity, application before weed generation in submerged conditions (symbol A); conditions: application herbicide amount 320 g/ha
In short: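 Scores run 0 to 5 by herbicidal ratio, with 5 meaning 90% or more and 0 meaning 5% or lower, read 3 weeks after treatment. Compound was applied as a diluted emulsion to the water surface of submerged alluvial-soil pots on the day weed seeds were sown.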

[2] = system: Echinochloa oryzacola Vasing.; assay: Test Example 2: herbicidal activity, application during weed generation in submerged conditions (symbol A); conditions: Table 23; application herbicide amount 320 g/ha; grade 0-5 by criteria of Test Example 1
In short: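 Steps: fill pots with alluvial soil; add water to 4 cm depth; co-sow the three weeds; grow at 25° C. to 30° C. under glass; at 1–2 leaves, dose the floodwater with diluted emulsion; rate damage visually after 3 weeks.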

[3] = system: Echinochloa crus-galli var. crus-galli; assay: Test Example 4: herbicidal effect by soil treatment (symbol H); conditions: application herbicide amount 320 g/ha
In short: (§1)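 Seeds were sown in sterilized diluvial soil, covered with about 1.5 cm of soil, and the soil surface was sprayed with a water-diluted emulsion of the compound at a predetermined rate. Plants grew in a greenhouse at 25° C. to 30° C.; effects were scored visually 3 weeks after application.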

Avena fatua = assay: Test Example 4: herbicidal effect by soil treatment (symbol I); conditions: application herbicide amount 320 g/ha
In short: as §1

Alopecurus myosuroides = assay: Test Example 4: herbicidal effect by soil treatment (symbol J); conditions: application herbicide amount 320 g/ha
In short: as §1

Lolium multiflorum Lam. [4] = assay: Test Example 4: herbicidal effect by soil treatment (symbol K); conditions: application herbicide amount 320 g/ha
In short: as §1

Veronica persica [5] = assay: Test Example 4: herbicidal effect by soil treatment (symbol R); conditions: application herbicide amount 320 g/ha
In short: as §1

corn = assay: Test Example 4: effect on crop by soil treatment (symbol c); conditions: application herbicide amount 320 g/ha
In short: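 Grown at 25° C. to 30° C. in a greenhouse, the crops came from seed sown spot-wise in sterilized diluvial soil under roughly 1.5 cm of covering soil.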

rapeseed = assay: Test Example 4: effect on crop by soil treatment (symbol g); conditions: application herbicide amount 320 g/ha
In short: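 The test used sterilized diluvial soil. Seed was set down in spots and overlaid with about 1.5 cm of soil before growth in a greenhouse kept at 25° C. to 30° C.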

Setaria viridis = assay: Test Example 5: herbicidal effect by foliage application, plastic box (symbol G); conditions: 320 g/ha, 3 weeks after application
In short: (§2)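 Effect is rated 3 weeks after a foliar spray of water-diluted emulsion concentrate at a predetermined herbicide amount. Plants had grown 14 days in a 25° C. to 30° C. greenhouse from seed in sterilized diluvial soil.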

Lolium multiflorum Lam. [6] = assay: Test Example 5: herbicidal effect by foliage application, plastic box (symbol K); conditions: 320 g/ha, 3 weeks after application
In short: as §2

Abutilon theophrasti = assay: Test Example 5: herbicidal effect by foliage application, plastic box (symbol M); conditions: 320 g/ha, 3 weeks after application
In short: as §2

Amaranthus retroflexus = assay: Test Example 5: herbicidal effect by foliage application, plastic box (symbol N); conditions: 320 g/ha, 3 weeks after application
In short: as §2

Stellaria media = assay: Test Example 5: herbicidal effect by foliage application, plastic box (symbol P); conditions: 320 g/ha, 3 weeks after application
In short: as §2

Galium spurium = assay: Test Example 5: herbicidal effect by foliage application, plastic box (symbol Q); conditions: 320 g/ha, 3 weeks after application
In short: as §2

Veronica persica [7] = assay: Test Example 5: herbicidal effect by foliage application, plastic box (symbol R); conditions: 320 g/ha, 3 weeks after application
In short: as §2

rice plant = assay: Test Example 5: effect on crop by foliage application, plastic box (symbol b); conditions: 320 g/ha, 3 weeks after application
In short: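 Box culture: sterile diluvial soil, seeds spot-sown, ~1.5 cm cover, raised under glass at 25–30° C.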

## CCCCCCCCC(=O)OC1=C(c2c(C)cc(C)cc2C)C(=O)C(CC(C)=NOC)C1 (centres unmarked) [1-033]
[1]
  Herbicidal effect grade, A: Echinochloa oryzacola Vasing.: 5 (Herbicidal ratio of 90% or more (almost completely withered))
[2]
  Herbicidal effect grade, A: Echinochloa oryzacola Vasing.: 5 (Herbicidal ratio of 90% or more (almost completely withered))
[3]
  H (Echinochloa crus-galli var. crus-galli) herbicidal effect grade: 5 (Herbicidal ratio of 90% or more (almost completely withered))
Avena fatua
  I (Avena fatua) herbicidal effect grade: 4 (Herbicidal ratio of 70% or higher and lower than 90%)
Alopecurus myosuroides
  J (Alopecurus myosuroides) herbicidal effect grade: 5 (Herbicidal ratio of 90% or more (almost completely withered))
Lolium multiflorum Lam. [4]
  K (Lolium multiflorum Lam.) herbicidal effect grade: 5 (Herbicidal ratio of 90% or more (almost completely withered))
Veronica persica [5]
  R (Veronica persica) herbicidal effect grade: 1 (Herbicidal ratio of 5% or higher and lower than 20%)
corn
  c (corn) effect on crop grade: 4 (Herbicidal ratio of 70% or higher and lower than 90%)
rapeseed
  g (rapeseed) effect on crop grade: 5 (Herbicidal ratio of 90% or more (almost completely withered))
Setaria viridis
  G: Setaria viridis, herbicidal effect grade: 5 (Herbicidal ratio of 90% or more (almost completely withered))
Lolium multiflorum Lam. [6]
  K: Lolium multiflorum Lam., herbicidal effect grade: 5 (Herbicidal ratio of 90% or more (almost completely withered))
Abutilon theophrasti
  M: Abutilon theophrasti, herbicidal effect grade: 4 (Herbicidal ratio of 70% or higher and lower than 90%)
Amaranthus retroflexus
  N: Amaranthus retroflexus, herbicidal effect grade: 4 (Herbicidal ratio of 70% or higher and lower than 90%)
Stellaria media
  P: Stellaria media, herbicidal effect grade: 3 (Herbicidal ratio of 40% or higher and lower than 70%)
Galium spurium
  Q: Galium spurium, herbicidal effect grade: 1 (Herbicidal ratio of 5% or higher and lower than 20%)
Veronica persica [7]
  R: Veronica persica, herbicidal effect grade: 2 (Herbicidal ratio of 20% or higher and lower than 40%)
Rice plant
  b: directly sowed rice plant, effect on crop grade: 5 (Herbicidal ratio of 90% or more (almost completely withered))
